Experimental data published in PMC11091702, “CD38 restrains the activity of extracellular cGAMP in a model of multiple myeloma” (iScience, 2024).
Like-named read-outs stand apart in the source and are kept apart here.

What was measured:
[1] = target: T1, CD38 (rhCD38) (Homo sapiens, UniProt P28907); test: tryptophan fluorescence quenching titration; type: binding
T1 construct: ectodomain of recombinant human CD38 (His-tagged)

[2] = test system: T2, NC(=O)c1ccc[n+]([C@@H]2O[C@H](COP(=O)([O-])OP(=O)(O)OC[C@H]3O[C@@H](n4cnc5c4ncn4ccnc54)[C@H](O)[C@@H]3O)[C@@H](O)[C@H]2O)c1; test: fluorescence hydrolase assay, Km determination; type: biochemical, Homo sapiens
T2 construct: recombinant human His-tagged CD38 protein

T1 sequence (P28907 45-300): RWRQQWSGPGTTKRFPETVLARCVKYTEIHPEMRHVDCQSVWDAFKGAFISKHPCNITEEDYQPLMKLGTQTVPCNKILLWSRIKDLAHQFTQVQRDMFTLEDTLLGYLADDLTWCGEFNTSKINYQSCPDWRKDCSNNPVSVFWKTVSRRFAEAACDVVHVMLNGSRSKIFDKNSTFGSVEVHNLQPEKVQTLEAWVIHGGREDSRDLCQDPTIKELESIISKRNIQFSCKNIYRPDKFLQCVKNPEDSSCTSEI

NC(=O)c1ccc[n+]([C@@H]2O[C@H](COP(=O)([O-])OP(=O)(O)OC[C@H]3O[C@@H](n4cnc5c(N)ncnc54)[C@H](O)[C@@H]3O)[C@@H](O)[C@H]2O)c1 [β-NAD]
Kd [1]: 28 ± 9.4 µM

CD38 (rhCD38) (Homo sapiens)
Km [2]: 56.2 ± 8.9 x 10^−6 M

Nc1nc2c(ncn2[C@@H]2O[C@@H]3COP(=O)(S)O[C@H]4[C@@H](O)[C@H](n5cnc6c(N)ncnc65)O[C@@H]4COP(=O)(S)O[C@@H]2[C@@H]3O)c(=O)[nH]1 (stereo partly drawn) [2′3′-cG^sA^sMP]
Kd ([1]; read-out: Kd): 46.3 ± 9.8 µM
